From patent publication US20040209849A1, “Use of effectors of the central cholinergic nervous system for treatment of delirium” (priority 1998, published 2004)

Test system: non-anticholinergic delirium (lithium poisoning, severe hyperactive delirium)
Assay: Individual case: treatment of a non-anticholinergic (lithium poisoning) delirium with orally administered rivastigmine
Assay type: in vivo, human
Conditions: patient, after 48 hours of therapy at 2×1.5 mg
Text: Treatment of a non-anticholinergic delirium with an orally administered modern inhibitor of acetylcholine esterase, rivastigmine
A patient had suffered from manic-depressive disease. Until recently there were no mental disintegration phenomena. After a urinary tract infection with lithium therapy of the manic-depressive condition, lithium poisoning occurred with a severe hyperactive delirium which forced the patient to be admitted to a hospital on an in-patient ward. These lithium poisoning deliria generally subside completely only after 6-8 weeks. The patient was transferred to a private clinic after 4 days and was highly psychotic, urinated in the corner of the room, talked to the lamp on the night table, hallucinated strange individuals and dwarves in the room, repeatedly fled the ward, believed that the nursing personnel wanted to kill them, was extremely agitated in motor response and restless, fumbled around with the blanket and phone cord, fell asleep repeatedly during the day, but remained up all night. The patient cried and laughed in alternation, suddenly became afraid again and again and then laughed. All these symptoms were very unstable, highly varied, but the patient was not actually responsive on the admission date. On the Trzepacz scale of delirium (Psychiatry Research, 23, (1988), […]) a score of 29 (of a possible 32) corresponding to a severe delirium was reached. […]

## CCN(C)C(=O)Oc1cccc([C@H](C)N(C)C)c1 [rivastigmine]
  clinical state after therapy: the patient was oriented, no longer hallucinated
Score before therapy 29 (of a possible 32)
  delirium score on the Trzepacz scale of delirium: 8
